Reference: patent publication US6353019B1, “Macrocyclic lactones, compositions, and methods of use” (United States of America as represented by the Department …, priority 1997, dated 2002)

Tests used:
Format in all cases: cell-based, human
Conditions in all cases: averaged, quadruplicate testing, 48 h, SRB
786-0 = assay: NCI 60 cell-line screen, 786-0 (Kidney)
Procedure: (§1) The NCI screen consists of a panel of 60 different human tumor cell lines against which compounds are tested over a defined range of concentrations to determine the relative degree of growth inhibition or cytotoxicity against each cell line. The design and operation of the screen is such that for each compound tested, both the absolute and relative sensitivities of individual cell lines comprising the screen are sufficiently reproducible that a characteristic profile or “fingerprint” of cellular response is generated. Compounds which are active in the NCI screen show pronounced differential tumor growth-inhibitory and/or cytotoxic effects to the diverse cell lines comprising the 60 cell-line panel. The degree of differential response between the most and least sensitive lines typically may be relatively small (e.g., 2- to 10-fold), or occasionally as great as 3-4 orders of magnitude. […]
(§2) In the screening assay, each agent is tested over a broad concentration range against every cell line in the panel. […] Test compounds are evaluated at five 10-fold dilutions. […] Optical densities are measured on automated plate readers, followed by computerized data acquisition, processing, storage, and availability for display and analysis. […]

SK-MEL-28 = assay: NCI 60 cell-line screen, SK-MEL-28 (Melanoma)
Procedure: as §1, §2

MOLT-4 = assay: NCI 60 cell-line screen, MOLT-4 (Leukemia)
Procedure: as §1, §2

SW-620 = assay: NCI 60 cell-line screen, SW-620 (Colon)
Procedure: as §1, §2

HS-578T = assay: NCI 60 cell-line screen, HS-578T (Breast)
Procedure: as §1, §2

UO-31 = assay: NCI 60 cell-line screen, UO-31 (Kidney)
Procedure: as §1, §2

SN-12C = assay: NCI 60 cell-line screen, SN-12C (Kidney)
Procedure: as §1, §2

OVCAR-4 = assay: NCI 60 cell-line screen, OVCAR-4 (Ovary)
Procedure: as §1, §2

ACHN = assay: NCI 60 cell-line screen, ACHN (Kidney)
Procedure: as §1, §2

UACC-62 = assay: NCI 60 cell-line screen, UACC-62 (Melanoma)
Procedure: as §1, §2

TK-10 = assay: NCI 60 cell-line screen, TK-10 (Kidney)
Procedure: as §1, §2

NCI-H460 = assay: NCI 60 cell-line screen, NCI-H460 (Lung)
Procedure: as §1, §2

NCI-H522 = assay: NCI 60 cell-line screen, NCI-H522 (Lung)
Procedure: as §1, §2

HCT-15 = assay: NCI 60 cell-line screen, HCT-15 (Colon)
Procedure: as §1, §2

MALME-3M = assay: NCI 60 cell-line screen, MALME-3M (Melanoma)
Procedure: as §1, §2

A498 = assay: NCI 60 cell-line screen, A498 (Kidney)
Procedure: as §1, §2

BT-549 = assay: NCI 60 cell-line screen, BT-549 (Breast)
Procedure: as §1, §2

CAKI-1 = assay: NCI 60 cell-line screen, CAKI-1 (Kidney)
Procedure: as §1, §2

SK-MEL-5 = assay: NCI 60 cell-line screen, SK-MEL-5 (Melanoma)
Procedure: as §1, §2

HOP-92 = assay: NCI 60 cell-line screen, HOP-92 (Lung)
Procedure: as §1, §2

HOP-62 = assay: NCI 60 cell-line screen, HOP-62 (Lung)
Procedure: as §1, §2

NCI-H23 = assay: NCI 60 cell-line screen, NCI-H23 (Lung)
Procedure: as §1, §2

NCI-H322M = assay: NCI 60 cell-line screen, NCI-H322M (Lung)
Procedure: as §1, §2

SK-OV-3 = assay: NCI 60 cell-line screen, SK-OV-3 (Ovary)
Procedure: as §1, §2

OVCAR-8 = assay: NCI 60 cell-line screen, OVCAR-8 (Ovary)
Procedure: as §1, §2

MDA-N = assay: NCI 60 cell-line screen, MDA-N (Breast)
Procedure: as §1, §2

salicylihalamide A
negative log10 GI50 (786-0): 7.92
negative log10 GI50 (SK-MEL-28): 7.00
negative log10 GI50 (MOLT-4): 7.96
negative log10 GI50 (SW-620): 7.54
negative log10 GI50 (HS-578T): 5.85
negative log10 GI50 (UO-31): 8.31
negative log10 GI50 (SN-12C): 7.77
negative log10 GI50 (OVCAR-4): 5.30
negative log10 GI50 (ACHN): 8.01
negative log10 GI50 (UACC-62): 8.38
negative log10 GI50 (TK-10): 5.74
negative log10 GI50 (NCI-H460): 9.01
negative log10 GI50 (NCI-H522): 7.26
negative log10 GI50 (HCT-15): 8.44
negative log10 GI50 (MALME-3M): 7.62
negative log10 GI50 (A498): 6.55
negative log10 GI50 (BT-549): 9.30
negative log10 GI50 (CAKI-1): 8.96
negative log10 GI50 (SK-MEL-5): 9.00
negative log10 GI50 (HOP-92): 7.77
negative log10 GI50 (HOP-62): 8.38
negative log10 GI50 (NCI-H23): 6.55
negative log10 GI50 (NCI-H322M): 6.72
negative log10 GI50 (SK-OV-3): 5.54
negative log10 GI50 (OVCAR-8): 8.43
negative log10 GI50 (MDA-N): 8.00
